From ChEMBL document CHEMBL5729163, “Substituted cyclohexyl compounds as NOP inhibiiors” (2022)
pIC50: −log10 of the molar value.

Each compound was assayed against Nociceptin receptor (Homo sapiens, UniProt P41146) (assay: Cell-Based NOP Assay: Formula (I) compounds were tested for antagonism of the nociceptin receptor (NOP) in a cell-based cAMP assay, using the LANCE cAMP Detection Kit, Perkin Elmer (Waltham, Mass.). This assay (LANCE cAMP) is a homogeneous, time-resolved fluorescence resonance energy transfer (TR-FRET) immunoassay designed to measure cAMP produced upon modulation of adenylyl cyclase activity by G protein-coupled receptors (GPCRs).ProtocolCells expressing human opioid NOP (ValiScreen cell line, cat #ES-230-C Perkin Elmer (Waltham, Mass.) were dispensed in simulation buffer (5 mM Hepes, 0.1% BSA, 0.5 mM IBMX in Hanks Buffered Saline Solution) at 2.5 μL cells per well (400 cells/well) into a 1536 white TC-treated assay plate. Compound was then added and plates were incubated for 15 minutes at room temperature. To each well was added 2.5 μL of a solution containing forskolin (3 μM final) and nociceptin peptide (390 pM final) diluted in stimulation buffer, and the plates were incubated for 30 minutes at room temperature. To each well was dispensed 5 μL of LANCE Ultra detection (1:300 dilution of anti-cAMP ULight with a 1:100 dilution of Eu-cAMP tracer diluted in cAMP Detection Buffer) reagent, and the plates were incubated for 1 hr at room temperature. The plate was then read on the ViewLux microplate reader (Perkin Elmer, Waltham, Mass.) using the LANCE 1536 protocol with 60 second exposure times and 50 μs delay. This protocol has an excitation wavelength of 340 nm (DUG11 filter) and emission wavelengths of 615 nm (Eu-Donor) and 665 nm (Alexa 647 cAMP antibody acceptor).Data AnalysisData was analyzed, normalized, and visualized using ACAS (John McNeil & Co.). Efficacy was calculated using activity of the vehicle (DMSO) as 0% efficacy and the activity of the corresponding reference positive control (SCH 221510, Tocris Bioscience (Pittsburgh, Pa.), Catalog number 3240) as 100% efficacy. Activity was calculated as the ratio of donor and acceptor emissions. All curve fits and IC50 determinations were performed using a non-linear regression model. The IC50 value was measured as the concentration at which half-maximal response was calculated.).
Nociceptin receptor, sequence (P41146 whole entry): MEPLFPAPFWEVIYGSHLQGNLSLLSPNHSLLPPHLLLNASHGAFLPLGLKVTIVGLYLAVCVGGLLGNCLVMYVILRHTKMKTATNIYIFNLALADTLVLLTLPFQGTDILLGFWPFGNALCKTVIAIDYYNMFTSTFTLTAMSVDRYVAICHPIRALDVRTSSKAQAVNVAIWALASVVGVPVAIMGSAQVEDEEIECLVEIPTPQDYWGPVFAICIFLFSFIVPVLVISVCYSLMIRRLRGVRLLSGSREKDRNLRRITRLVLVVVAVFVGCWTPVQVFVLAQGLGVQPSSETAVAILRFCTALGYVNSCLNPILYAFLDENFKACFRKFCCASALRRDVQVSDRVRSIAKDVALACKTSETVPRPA

NC(=O)C1(NCC[C@H]2CC[C@H](c3ccc(F)cc3Cl)CC2)CCOCC1 and Cc1cc(F)ccc1[C@H]1CC[C@H](CCNC2(C(N)=O)CCOCC2)CC1 fall in the same range of pIC50: 7.00 to 8.00 for the first, 7.00 to 8.00 for the second.

First: Cc1cc(F)ccc1[C@H]1CC[C@H](CCNC2CCOCC2)CC1
Second: Cc1cc(F)c(F)cc1[C@H]1CC[C@@H](CCNC2(C(N)=O)CCOCC2)CC1
The pIC50 of the first is higher: 8.00 to 9.00 for the first, 7.00 to 8.00 for the second.

With CCNC(=O)C1(NCC[C@H]2CC[C@@H](c3ncc(F)cc3Cl)CC2)CCOCC1 the pIC50 was 8.00 to 9.00.
